Data taken from the NIST ThermoML archive (doi:10.1016/j.jct.2016.04.003).

Assay: xn = mol fraction of the nth substance listed
Conditions: for surface tension liquid-gas: Drop volume; for viscosity / speed of sound / mass density: 99 kPa, Liquid; for viscosity: Capillary tube (Ostwald / Ubbelohde) method; for speed of sound: Frequency=3 MHz, Sing-around technique in a fixed-path interferometer; for mass density: Vibrating tube method

CCC[n+]1ccccc1.F[B-](F)(F)F [1-propylpyridinium tetrafluoroborate] + O
Conditions	mass density [kg/m3]	speed of sound [m/s]	surface tension liquid-gas [mN/m]	viscosity [mPa·s]
313.15 K, x1 = 0.0185	1026	1559	–	–
313.15 K, x1 = 0.028	–	–	56	–
313.15 K, x1 = 0.0287	1041.1	1568.7	–	–
313.15 K, x1 = 0.0466	1063.1	1580.6	–	–
313.15 K, x1 = 0.0492	–	–	–	0.843
313.15 K, x1 = 0.0551	–	–	53.7	–
313.15 K, x1 = 0.0766	1091.4	1593	–	–
313.15 K, x1 = 0.0952	–	–	–	1.122
313.15 K, x1 = 0.0964	1105.8	1598.5	–	–
313.15 K, x1 = 0.1008	–	–	51.7	–
313.15 K, x1 = 0.1522	–	–	50.5	–
313.15 K, x1 = 0.1948	–	–	–	1.755
313.15 K, x1 = 0.1965	–	–	49.9	–
313.15 K, x1 = 0.2011	1154.3	1610.4	–	–
313.15 K, x1 = 0.2588	–	–	–	2.326
313.15 K, x1 = 0.2858	1176.6	1610.4	–	–
313.15 K, x1 = 0.2947	–	–	49.8	–
313.15 K, x1 = 0.3451	–	–	49.6	–
313.15 K, x1 = 0.3891	–	–	–	4.172
313.15 K, x1 = 0.3968	–	–	49.5	–
313.15 K, x1 = 0.3993	1196.3	1607.7	–	–
313.15 K, x1 = 0.4779	–	–	49.5	–
313.15 K, x1 = 0.4894	–	–	–	7.412
313.15 K, x1 = 0.4979	1208.2	1604.7	–	–
313.15 K, x1 = 0.5772	1215.5	1602.4	–	–
313.15 K, x1 = 0.5827	–	–	49.6	–
313.15 K, x1 = 0.5942	–	–	–	10.92
313.15 K, x1 = 0.6015	1217.5	1601.9	–	–
313.15 K, x1 = 0.6695	1222.5	1600.6	–	–
313.15 K, x1 = 0.6846	–	–	49.6	–
313.15 K, x1 = 0.6952	–	–	–	16.2
313.15 K, x1 = 0.7309	1226.5	1599.9	–	–
313.15 K, x1 = 0.7771	1229.4	1599.7	–	–
313.15 K, x1 = 0.7861	–	–	49.6	–
313.15 K, x1 = 0.7903	–	–	–	23.05
313.15 K, x1 = 0.8395	1232.9	1600.3	–	–
313.15 K, x1 = 0.8862	–	–	49.6	–
313.15 K, x1 = 0.8982	–	–	–	35.15
313.15 K, x1 = 0.9054	1236.7	1601.8	–	–
313.15 K, x1 = 0.9425	–	–	49.7	–
313.15 K, x1 = 0.943	–	–	–	43.35
313.15 K, x1 = 0.9633	1240.1	1604.2	–	–
313.15 K, x1 = 1	1242.4	1606.3	49.8	56.02
323.15 K, x1 = 0.0185	1020.8	1563.2	–	–
323.15 K, x1 = 0.028	–	–	54.5	–
323.15 K, x1 = 0.0287	1035.6	1569.4	–	–
323.15 K, x1 = 0.0466	1057	1576.8	–	–
323.15 K, x1 = 0.0492	–	–	–	0.714
323.15 K, x1 = 0.0551	–	–	52.2	–
323.15 K, x1 = 0.0766	1084.7	1583.8	–	–
323.15 K, x1 = 0.0952	–	–	–	0.889
323.15 K, x1 = 0.0964	1098.9	1586.7	–	–
323.15 K, x1 = 0.1008	–	–	50.4	–
323.15 K, x1 = 0.1522	–	–	49.2	–
323.15 K, x1 = 0.1948	–	–	–	1.379
323.15 K, x1 = 0.1965	–	–	48.6	–
323.15 K, x1 = 0.2011	1146.9	1591.5	–	–
323.15 K, x1 = 0.2588	–	–	–	1.808
323.15 K, x1 = 0.2858	1169.2	1589.7	–	–
323.15 K, x1 = 0.2947	–	–	48.7	–
323.15 K, x1 = 0.3451	–	–	48.6	–
323.15 K, x1 = 0.3891	–	–	–	3.105
323.15 K, x1 = 0.3968	–	–	48.5	–
323.15 K, x1 = 0.3993	1189	1586	–	–
323.15 K, x1 = 0.4779	–	–	48.5	–
323.15 K, x1 = 0.4894	–	–	–	5.345
323.15 K, x1 = 0.4979	1200.9	1582.6	–	–
323.15 K, x1 = 0.5772	1208.2	1580	–	–
323.15 K, x1 = 0.5827	–	–	48.7	–
323.15 K, x1 = 0.5942	–	–	–	8.242
323.15 K, x1 = 0.6015	1210.1	1579.4	–	–
323.15 K, x1 = 0.6695	1215.1	1577.7	–	–
323.15 K, x1 = 0.6846	–	–	48.7	–
323.15 K, x1 = 0.6952	–	–	–	12.05
323.15 K, x1 = 0.7309	1219.2	1576.7	–	–
323.15 K, x1 = 0.7771	1222.1	1576.2	–	–
323.15 K, x1 = 0.7861	–	–	48.8	–
323.15 K, x1 = 0.7903	–	–	–	15.97
323.15 K, x1 = 0.8395	1225.8	1576.6	–	–
323.15 K, x1 = 0.8862	–	–	48.9	–
323.15 K, x1 = 0.8982	–	–	–	23.99
323.15 K, x1 = 0.9054	1229.6	1578.1	–	–
323.15 K, x1 = 0.9425	–	–	48.9	–
323.15 K, x1 = 0.943	–	–	–	28.38
323.15 K, x1 = 0.9633	1233	1580.8	–	–
323.15 K, x1 = 1	1235.3	1583.3	49	36.99
